Results on 14 compounds are retold here after ChEMBL document CHEMBL1127759, “Synthesis and in vitro cytotoxicity of 6-vinyluridine and related compounds” (Bioorg Med Chem Lett, 1994).

This assay has as its system L1210. Put plainly: In vitro growth inhibitory activity against mouse L1210 leukemia cells. The class given is functional, cell-based.
Turning to `C/C=C/c1cc(O)nc(O)n1`, the IC50 (in general, the midpoint of a concentration-inhibition curve) is > 90 µM. On to `C/C=C/c1cc(=O)[nH]c(=O)n1C1O[C@H](CO)[C@@H](O)[C@H]1O` (some centres undefined), for which the half-maximal inhibitory concentration (IC50) is > 35 µM. Consider `C=Cc1cc(O)nc(O)n1`, for which the IC50 was 3 µM. The compound `C=Cc1nc(O)nc(O)c1Br` showed an IC50 of 11 µM. The result for `COC(=O)/C(Br)=C\c1cc(=O)[nH]c(=O)n1C1O[C@H](CO)[C@@H](O)[C@H]1O` (some centres undefined) reads > 25 µM; that for `CCOC(=O)/C(C)=C/c1cc(=O)[nH]c(=O)n1C1O[C@H](CO)[C@@H](O)[C@H]1O` (some centres undefined), > 30 µM. `C=Cc1nc(O)nc(O)c1Cl` displayed an IC50 of 4.5 µM.

In the case of `CCOC(=O)/C=C/c1cc(=O)[nH]c(=O)n1C1O[C@H](CO)[C@@H](O)[C@H]1O` (some centres undefined), the IC50 was > 35 µM. In the case of `CCOC(=O)/C(Br)=C\c1cc(O)nc(O)n1`, the IC50 worked out at 1 µM. With `CCOC(=O)/C=C/c1cc(O)nc(O)n1`, 38 µM corresponded to half-maximal inhibition (IC50). Turning to `CCOC(=O)/C(Cl)=C\c1cc(O)nc(O)n1`, the IC50 came out at 3 µM. Compound `C=Cc1nc(O)nc(O)c1I` registered an IC50 of 2 µM. As to `C=Cc1cc(=O)[nH]c(=O)n1C1O[C@H](CO)[C@@H](O)[C@H]1O` (some centres undefined), the midpoint of inhibition, the IC50, lay at 12 µM.

Compound `C/C=C\c1cc(O)nc(O)n1` displayed an IC50 of 46 µM.
